The text below walks through data of ChEMBL document CHEMBL1201862, “PubChem BioAssay data set” (2004).

Some test systems named below: SF-268; 786-0; RPMI-8226; NCI-H226; SW-620; TK-10; CCRF-CEM; SF-539; MCF7; IGROV-1; NCI-H460; SNB-19; A549; SR; KM12; CAKI-1; HL-60; T47D; SK-MEL-5; MDA-MB-231.
Holding throughout (experiment): NCI tumour cell line growth inhibition, 48 h

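Results reflect a 48-hour exposure of cells in 96-well plates to compound at five concentrations. Here, GI50 denotes the concentration required for 50% inhibition of growth.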 Calls of active or inactive are those of the source. Rule as the data show it: active = GI50 up to about 1.1 µM and inactive = higher.

For `C[Si](C)(c1ccccc1)[C@H]1CCCC=C1CCNC1c2ccccc2CCc2ccccc21`, the GI50 in the assay with SF-268 is > 100 µM (inactive); in the assay on 786-0 it was > 100 µM (inactive); in the assay on RPMI-8226 it was 46.8 µM (inactive); in the assay with NCI-H226, > 100 µM (inactive); in the assay with SW-620, > 100 µM (inactive); in the assay with TK-10, > 100 µM (inactive). Further, the GI50 in the assay on CCRF-CEM was 1.07 µM (active); in the assay on SF-539 it was > 100 µM (inactive); with MCF7, 53 µM (inactive); with IGROV-1 it was 49.7 µM (inactive); in the assay on NCI-H460 it was 61.7 µM (inactive); in the assay on SNB-19, > 100 µM (inactive). Further, the GI50 with A549 was 61.8 µM (inactive); with SR, 36.6 µM (inactive); with KM12, 77.3 µM (inactive); with CAKI-1, 73.5 µM (inactive); in the assay with HL-60, 1.79 µM (inactive); in the assay on T47D, 35.9 µM (inactive). The GI50 in the assay on SK-MEL-5 was 33.6 µM (inactive); with MDA-MB-231, 89.7 µM (inactive).

With `OC1NC2CC3NC(O)C(O)NC3CC2NC1O` (stereo not given), the GI50 in the assay on SF-268, in the assay on 786-0, in the assay with RPMI-8226, in the assay on NCI-H226, in the assay on SW-620 and in the assay on TK-10 was > 100 µM (inactive) each time. The GI50 with CCRF-CEM, in the assay on SF-539, in the assay on MCF7, in the assay with IGROV-1, in the assay with NCI-H460 and in the assay with SNB-19 was > 100 µM (inactive) in each case. Besides, the GI50 in the assay on A549, in the assay on SR, with KM12, in the assay on CAKI-1, in the assay on HL-60 and in the assay on T47D was > 100 µM (inactive) each time. Further, the GI50 with SK-MEL-5 and with MDA-MB-231 was > 100 µM (inactive) throughout.

As to `Cc1c2c(C#N)nccc2c(C)c2c1c1ccccc1n2Cc1ccccc1`, the GI50 with SF-268, with 786-0, in the assay on RPMI-8226, in the assay with NCI-H226, in the assay with SW-620 and in the assay with TK-10 was > 100 µM (inactive) each time. Further, the GI50 is > 100 µM (inactive) in the assay with CCRF-CEM; > 100 µM (inactive) with SF-539; 6.49 µM (inactive) in the assay on MCF7; > 100 µM (inactive) with IGROV-1; > 100 µM (inactive) in the assay with NCI-H460; > 100 µM (inactive) in the assay with SNB-19. Also, the GI50 was > 100 µM (inactive) with A549; 36.1 µM (inactive) with SR; > 100 µM (inactive) with KM12; > 100 µM (inactive) with CAKI-1; > 100 µM (inactive) in the assay on HL-60; 63.5 µM (inactive) in the assay with T47D. Besides, the GI50 in the assay on SK-MEL-5 and in the assay on MDA-MB-231 was > 100 µM (inactive) throughout.

With `O=C1Nc2ccccc2/C1=N/NC(=O)C(O)(c1ccccc1)c1ccccc1`, the GI50 was 27.1 µM (inactive) with SF-268; 35.4 µM (inactive) in the assay with 786-0; 19.6 µM (inactive) in the assay on RPMI-8226; 20.6 µM (inactive) with NCI-H226; 17.1 µM (inactive) with SW-620; 28.8 µM (inactive) with TK-10. Also, the GI50 with CCRF-CEM was 26.1 µM (inactive); in the assay on SF-539, 15.8 µM (inactive); with MCF7, 22.4 µM (inactive); in the assay on IGROV-1, 19.6 µM (inactive); in the assay on NCI-H460 it was 17.2 µM (inactive); with SNB-19, 16.7 µM (inactive). The GI50 in the assay on A549 was 17.1 µM (inactive); with SR, 21.2 µM (inactive); in the assay on KM12, 17.4 µM (inactive); in the assay on CAKI-1, 31.7 µM (inactive); in the assay with HL-60 it was 17.4 µM (inactive); in the assay on T47D it was 23.8 µM (inactive). The GI50 in the assay on SK-MEL-5 was 16.2 µM (inactive); in the assay with MDA-MB-231, 18.1 µM (inactive).

In the case of `c1c2c(cc3c1OCO3)-c1cc3ccc4c(c3c[n+]1CC2)OCO4` [COPTISINE CHLORIDE], the GI50 in the assay on SF-268 is 2.36 µM (inactive); with 786-0, 4.2 µM (inactive); with RPMI-8226 it was 0.711 µM (active); in the assay on NCI-H226, 1.92 µM (inactive); in the assay on SW-620, 0.462 µM (active); with TK-10, > 12.5 µM (inactive). For the same molecule, the GI50 with CCRF-CEM was 0.764 µM (active); with SF-539 it was 0.887 µM (active); with MCF7, 1.24 µM (inactive); with IGROV-1, 2.04 µM (inactive); in the assay with NCI-H460 it was 0.53 µM (active); in the assay with SNB-19, 1.22 µM (inactive). Moreover, the GI50 is 4.44 µM (inactive) in the assay with A549; 0.486 µM (active) in the assay on SR; 0.925 µM (active) in the assay with KM12; > 12.5 µM (inactive) in the assay with CAKI-1; 0.406 µM (active) in the assay with HL-60; 3.13 µM (inactive) with T47D. The GI50 with SK-MEL-5 is 0.587 µM (active); in the assay on MDA-MB-231 it was 1.13 µM (inactive).

Consider `C/C(=N\NC(N)=O)C(CN(C)C)C(c1ccccc1)c1c(O)c2ccccc2oc1=O` (stereo not given), for which the GI50 in the assay on SF-268 is > 100 µM (inactive); in the assay with 786-0, > 100 µM (inactive); with RPMI-8226, 61.5 µM (inactive); in the assay with NCI-H226, > 100 µM (inactive); in the assay on SW-620, > 100 µM (inactive); in the assay on TK-10 it was > 100 µM (inactive). Moreover, the GI50 in the assay with CCRF-CEM was 90.8 µM (inactive); in the assay on SF-539, > 100 µM (inactive); in the assay with MCF7 it was > 100 µM (inactive); in the assay on IGROV-1, > 100 µM (inactive); in the assay on NCI-H460 it was > 100 µM (inactive); in the assay with SNB-19, > 100 µM (inactive). For the same molecule, the GI50 with A549 was > 100 µM (inactive); in the assay with SR, > 100 µM (inactive); in the assay on KM12, > 100 µM (inactive); with CAKI-1 it was > 100 µM (inactive); in the assay with HL-60 it was 38.4 µM (inactive); in the assay with T47D it was > 100 µM (inactive). For the same molecule, the GI50 with SK-MEL-5 and in the assay with MDA-MB-231 was > 100 µM (inactive) in each case.

For the molecule `O=C(O)COc1cc(-c2ccccc2)nc2cc(F)ccc12`, the GI50 in the assay on SF-268 was > 100 µM (inactive); in the assay on 786-0, > 100 µM (inactive); in the assay on RPMI-8226, > 100 µM (inactive); in the assay on NCI-H226, > 100 µM (inactive); with SW-620, > 100 µM (inactive); in the assay on TK-10, 0.375 µM (active). Also, the GI50 in the assay with CCRF-CEM, in the assay on SF-539, in the assay on MCF7, with IGROV-1, with NCI-H460 and in the assay on SNB-19 was > 100 µM (inactive) throughout. Also, the GI50 with A549, in the assay with SR, with KM12, in the assay on CAKI-1, with HL-60 and in the assay on T47D was > 100 µM (inactive) each time. For the same molecule, the GI50 in the assay with SK-MEL-5 and in the assay on MDA-MB-231 was > 100 µM (inactive) in each case.

For `CC(=O)OC1CC(O)CC2=CCC3C4CCC(C(C)(O)C(O)CC5COC(=O)C5C)C4(C)CCC3C21C` (stereo not given), the GI50 in the assay with SF-268 was > 25 µM (inactive); in the assay with 786-0, > 25 µM (inactive); in the assay on RPMI-8226, 14.6 µM (inactive); in the assay on NCI-H226, 12.1 µM (inactive); in the assay on SW-620, > 25 µM (inactive); with TK-10, > 25 µM (inactive). For the same molecule, the GI50 with CCRF-CEM is 16.5 µM (inactive); in the assay on SF-539, > 25 µM (inactive); in the assay with MCF7 it was > 25 µM (inactive); with IGROV-1, > 25 µM (inactive); with NCI-H460, > 25 µM (inactive); with SNB-19, > 25 µM (inactive). The GI50 in the assay with A549 was > 25 µM (inactive); with SR, 13.6 µM (inactive); with KM12, > 25 µM (inactive); with CAKI-1 it was 8.43 µM (inactive); with HL-60, 4.39 µM (inactive); in the assay with T47D, > 25 µM (inactive). Further, the results for the GI50 in the assay with SK-MEL-5 and in the assay on MDA-MB-231 were 7.66 µM (inactive) and 13 µM (inactive), respectively.

As for `COc1c2c(cc3oc(C)cc(=O)c13)OC(=N)C(C(N)=O)C2CC(=O)c1ccc(N)cc1` (stereo not given), the GI50 in the assay on SF-268, in the assay on 786-0, in the assay with RPMI-8226, with NCI-H226, with SW-620 and with TK-10 was > 100 µM (inactive) in each case. The GI50 in the assay with CCRF-CEM, in the assay with SF-539, with MCF7, in the assay on IGROV-1, with NCI-H460 and in the assay with SNB-19 was > 100 µM (inactive) in each case. In addition, the GI50 with A549, with SR, in the assay on KM12, with CAKI-1, in the assay on HL-60 and in the assay on T47D was > 100 µM (inactive) throughout. In addition, the GI50 in the assay with SK-MEL-5 and with MDA-MB-231 was > 100 µM (inactive) in each case.

`COC(=O)C1=C(OC(=O)c2ccccc2)C(C(=O)OC)[C@]2(O)[C@@H](C(=O)OC)[C@H]1C[C@@H](c1ccccc1)[C@@H]2C(=O)OC` (stereo not given in full): the GI50 was 11.4 µM (inactive) in the assay on SF-268; 16.4 µM (inactive) with 786-0; 1.74 µM (inactive) with RPMI-8226; 2.56 µM (inactive) in the assay on NCI-H226; 5.12 µM (inactive) in the assay on SW-620; 17.3 µM (inactive) in the assay on TK-10. In addition, the GI50 is 0.716 µM (active) in the assay with CCRF-CEM; 2.2 µM (inactive) in the assay with SF-539; 3.01 µM (inactive) in the assay on MCF7; 4.69 µM (inactive) in the assay on IGROV-1; 9.68 µM (inactive) with NCI-H460; 10.7 µM (inactive) in the assay with SNB-19. Moreover, the GI50 in the assay on A549 is 9.18 µM (inactive); with SR it was 8.87 µM (inactive); with KM12 it was 8.63 µM (inactive); in the assay with CAKI-1, 14.2 µM (inactive); in the assay with HL-60, 2.02 µM (inactive); with T47D it was 6.52 µM (inactive). Besides, the GI50 in the assay on SK-MEL-5 is 4.85 µM (inactive); in the assay with MDA-MB-231 it was 15.7 µM (inactive).
